Laboratory results from paper PMC5095062, “The novel choline kinase inhibitor ICL-CCIC-0019 reprograms cellular metabolism and inhibits cancer cell growth” (Oncotarget, 2016).
Where two headings read alike, the source gives them in different places.

How the values were obtained:
[1] = system: HCT116 cells; assay: Metabolomics (LC-MS of soluble metabolites); format: cell-based, human; settings: for change of intracellular PCho pool: 24 h
Method: Unlabeled metabolite analyses were conducted as previously reported. HCT116 cells cultured overnight in 6-well plates were treated with vehicle, 1 or 10 μM ICL-CCIC-0019 for 24 h prior to extraction. For flux experiments, HCT116 cells were plated onto 6-well plates and cultured overnight. The cells were then grown in medium containing vehicle or 1 μM ICL-CCIC-0019 for 24 h. The medium was then replaced with that containing ^13C metabolites (5 mM ^13C6-glucose or 0.2 mM ^13C2-acetate) and inhibitor for various indicated time points. Metabolites were extracted with a cold solution (−20°C) composed of methanol, acetonitrile, and water (5:3:2). The insoluble material was immediately pelleted in a cooled (0°C) centrifuge at 16,000 × g for 15 min and the supernatant was collected for subsequent LC-MS analysis. A ZIC-pHILIC column (4.6 mm × 150 mm, guard column 2.1 mm × 20 mm, Merck) was used for LC separation using formic acid, water, and acetonitrile as component of the mobile phase. Metabolites were detected using an Exactive mass spectrometer (ThermoFisher).

[2] = system: NCI-60 panel of cell lines; assay: NCI-60 screen (whole panel); format: cell-based; settings: Homo sapiens
Description: The compound was then screened against a larger panel of cancer cell lines of diverse histopathologic origin, the NCI-60 screen. […] Mining of publicly available Cancer Genome Atlas (TCGA) expression data identified CHKA amplification and/or mRNA upregulation in 11% of breast, 5–10% of lung, 8% of ovarian, 7% of colorectal and 5% of prostate cancers. Furthermore, CHKA mRNA expression is higher in multiple tumor types compared to normal tissue (Supplementary Figure S1D). The gene was rarely mutated or deleted (0–2.5% mutation rate and < 1% deletion among all tested cancer types). The consistently high expression in a wide variety of tumor types highlights the relevance of CHKA in malignancy and role as a therapeutic target.

[3] = molecular target: BRSK2 (Homo sapiens, UniProt Q8IWQ3); assay: Kinase selectivity screen; format: biochemical; settings: BRSK2, 10 μM
Method: (§1) The substantially less demanding synthesis of ICL-CCIC-0019 compared with MN58B bears additional advantages. […] This consequently diminished intracellular PCho concentration, and importantly, the incorporation of [^3H]-choline into lipids (Figure 1D). […] To assess kinase specificity, ICL-CCIC-0019 was tested against a panel of 131 human kinases (Figure 1E and Supplementary Table S1). […] Inhibition greater than 20% was attained for insulin-like growth factor 1 (IGF-1R, 35 ± 7% inhibition), mitogen-activated protein kinase-activated protein kinase 3 (MAPKAP-K3, 33 ± 6%), extracellular signal regulated kinase 8 (ERK8, 31 ± 4%), ribosomal S6 kinase 1 (RSK1, 22 ± 6%), and v-erb-a erythroblastic leukemia viral oncogene homolog 4 (HER4, 21 ± 7%).

[4] = molecular target: ROCK 2 (Homo sapiens, UniProt O75116); assay: Kinase selectivity screen; format: biochemical; settings: ROCK 2, 10 μM
Method: as §1

[5] = molecular target: CK1γ2 (Homo sapiens, UniProt P78368); assay: Kinase selectivity screen; format: biochemical; settings: CK1γ2, 10 μM
Method: as §1

[6] = molecular target: EPH-A2 (Homo sapiens, UniProt P29317); assay: Kinase selectivity screen; format: biochemical; settings: EPH-A2, 10 μM
Method: as §1

[7] = molecular target: MARK1 (Homo sapiens, UniProt Q9P0L2); assay: Kinase selectivity screen; format: biochemical; settings: MARK1, 10 μM
Method: as §1

[8] = molecular target: EF2K (Homo sapiens, UniProt O00418); assay: Kinase selectivity screen; format: biochemical
Method: as §1

[9] = molecular target: PKBb (Homo sapiens, UniProt P31751); assay: Kinase selectivity screen; format: biochemical
Method: as §1

[10] = molecular target: CLK2 (Homo sapiens, UniProt P49760); assay: Kinase selectivity screen; format: biochemical; settings: CLK2, 10 μM
Method: as §1

[11] = molecular target: HIPK1 (Homo sapiens, UniProt Q86Z02); assay: Kinase selectivity screen; format: biochemical; settings: HIPK1, 10 μM
Method: as §1

[12] = molecular target: PDK1 (Homo sapiens, UniProt O15530); assay: Kinase selectivity screen; format: biochemical; settings: PDK1, 10 μM
Method: as §1

[13] = molecular target: TAO1 (Homo sapiens, UniProt Q7L7X3); assay: Kinase selectivity screen; format: biochemical; settings: TAO1, 10 μM
Method: as §1

[14] = molecular target: MARK3 (Homo sapiens, UniProt P27448); assay: Kinase selectivity screen; format: biochemical; settings: MARK3, 10 μM
Method: as §1

[15] = molecular target: IRR (Homo sapiens, UniProt P14616); assay: Kinase selectivity screen; format: biochemical
Method: as §1

[16] = molecular target: Src (Homo sapiens, UniProt P12931); assay: Kinase selectivity screen; format: biochemical
Method: as §1

[17] = molecular target: PRK2 (Homo sapiens, UniProt Q16513); assay: Kinase selectivity screen; format: biochemical; settings: PRK2, 10 μM
Method: as §1

[18] = molecular target: CSK (Homo sapiens, UniProt P41240); assay: Kinase selectivity screen; format: biochemical
Method: as §1

[19] = molecular target: p38b MAPK (Homo sapiens, UniProt Q15759); assay: Kinase selectivity screen; format: biochemical
Method: as §1

[20] = molecular target: MLK1 (Homo sapiens, UniProt P80192); assay: Kinase selectivity screen; format: biochemical; settings: MLK1, 10 μM
Method: as §1

[21] = molecular target: MINK1 (Homo sapiens, UniProt Q8N4C8); assay: Kinase selectivity screen; format: biochemical; settings: MINK1, 10 μM
Method: as §1

[22] = molecular target: IRAK1 (Homo sapiens, UniProt P51617); assay: Kinase selectivity screen; format: biochemical; settings: IRAK1, 10 μM
Method: as §1

[23] = molecular target: JNK2 (Homo sapiens, UniProt P45984); assay: Kinase selectivity screen; format: biochemical; settings: JNK2, 10 μM
Method: as §1

[24] = molecular target: Aurora B (Homo sapiens, UniProt Q96GD4); assay: Kinase selectivity screen; format: biochemical
Method: as §1

[25] = molecular target: ERK8 (Homo sapiens, UniProt Q8TD08); assay: Kinase selectivity screen; format: biochemical; settings: ERK8, 10 μM
Method: as §1

[26] = molecular target: ERK1 (Homo sapiens, UniProt P27361); assay: Kinase selectivity screen; format: biochemical; settings: ERK1, 10 μM
Method: as §1

Sequence of ERK8 (Q8TD08 whole entry): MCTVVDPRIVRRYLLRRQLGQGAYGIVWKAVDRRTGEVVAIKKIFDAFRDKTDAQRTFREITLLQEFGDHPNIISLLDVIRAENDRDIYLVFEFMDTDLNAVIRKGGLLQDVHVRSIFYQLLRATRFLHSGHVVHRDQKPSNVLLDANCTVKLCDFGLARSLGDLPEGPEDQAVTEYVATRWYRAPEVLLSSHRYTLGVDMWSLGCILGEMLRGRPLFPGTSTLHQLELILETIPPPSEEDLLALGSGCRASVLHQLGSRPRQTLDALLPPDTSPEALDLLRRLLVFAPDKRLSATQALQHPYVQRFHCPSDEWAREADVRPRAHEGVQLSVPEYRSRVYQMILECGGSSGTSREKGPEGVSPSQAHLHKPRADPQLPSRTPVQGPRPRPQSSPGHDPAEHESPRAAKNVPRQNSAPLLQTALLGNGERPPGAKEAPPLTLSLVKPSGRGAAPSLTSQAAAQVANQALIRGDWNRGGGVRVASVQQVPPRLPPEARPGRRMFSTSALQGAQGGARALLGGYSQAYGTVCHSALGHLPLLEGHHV
Sequence of IRAK1 (P51617 whole entry): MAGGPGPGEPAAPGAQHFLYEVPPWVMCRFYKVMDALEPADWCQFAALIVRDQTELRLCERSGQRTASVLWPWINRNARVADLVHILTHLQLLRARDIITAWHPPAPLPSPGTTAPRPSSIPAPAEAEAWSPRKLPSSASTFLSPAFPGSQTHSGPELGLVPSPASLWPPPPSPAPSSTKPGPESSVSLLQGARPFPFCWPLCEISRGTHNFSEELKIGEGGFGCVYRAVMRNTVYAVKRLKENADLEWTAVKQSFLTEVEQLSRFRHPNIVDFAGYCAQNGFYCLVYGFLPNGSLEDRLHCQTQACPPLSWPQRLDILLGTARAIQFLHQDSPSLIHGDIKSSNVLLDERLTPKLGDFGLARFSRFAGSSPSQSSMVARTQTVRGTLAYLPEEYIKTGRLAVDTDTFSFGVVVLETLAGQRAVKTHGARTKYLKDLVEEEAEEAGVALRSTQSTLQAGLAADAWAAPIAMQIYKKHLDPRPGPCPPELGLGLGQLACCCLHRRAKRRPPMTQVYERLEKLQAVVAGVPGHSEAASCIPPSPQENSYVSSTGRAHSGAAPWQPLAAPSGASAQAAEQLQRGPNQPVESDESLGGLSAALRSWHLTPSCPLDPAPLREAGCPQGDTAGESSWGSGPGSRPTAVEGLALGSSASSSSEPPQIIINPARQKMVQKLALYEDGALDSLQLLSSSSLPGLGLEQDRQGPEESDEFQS
Sequence of EPH-A2 (P29317 24-976): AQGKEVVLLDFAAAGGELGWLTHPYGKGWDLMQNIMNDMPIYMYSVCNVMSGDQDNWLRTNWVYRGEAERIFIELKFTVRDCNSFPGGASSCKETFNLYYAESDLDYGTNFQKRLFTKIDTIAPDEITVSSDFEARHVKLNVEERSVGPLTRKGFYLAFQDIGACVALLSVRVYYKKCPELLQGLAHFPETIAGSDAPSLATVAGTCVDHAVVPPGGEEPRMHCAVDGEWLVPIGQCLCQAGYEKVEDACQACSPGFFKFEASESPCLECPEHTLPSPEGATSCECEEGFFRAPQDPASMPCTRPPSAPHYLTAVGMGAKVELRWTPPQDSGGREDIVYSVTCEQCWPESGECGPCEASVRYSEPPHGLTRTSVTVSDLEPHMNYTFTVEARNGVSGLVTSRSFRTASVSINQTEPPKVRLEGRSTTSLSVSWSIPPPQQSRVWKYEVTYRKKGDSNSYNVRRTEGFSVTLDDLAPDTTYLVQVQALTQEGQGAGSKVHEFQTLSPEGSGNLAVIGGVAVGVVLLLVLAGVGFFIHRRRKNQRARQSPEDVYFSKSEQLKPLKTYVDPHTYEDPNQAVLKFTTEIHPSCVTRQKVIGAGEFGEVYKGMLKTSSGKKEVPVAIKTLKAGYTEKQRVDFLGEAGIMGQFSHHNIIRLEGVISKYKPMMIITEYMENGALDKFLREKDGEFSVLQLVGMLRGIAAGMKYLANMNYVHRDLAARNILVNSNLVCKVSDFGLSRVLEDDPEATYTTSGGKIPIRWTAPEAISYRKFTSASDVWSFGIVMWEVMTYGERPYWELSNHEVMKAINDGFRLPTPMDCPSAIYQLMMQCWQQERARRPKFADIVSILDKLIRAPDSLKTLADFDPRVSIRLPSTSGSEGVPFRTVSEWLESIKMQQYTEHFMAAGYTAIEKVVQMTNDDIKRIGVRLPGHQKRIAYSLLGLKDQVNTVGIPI
Sequence of MLK1 (P80192 whole entry): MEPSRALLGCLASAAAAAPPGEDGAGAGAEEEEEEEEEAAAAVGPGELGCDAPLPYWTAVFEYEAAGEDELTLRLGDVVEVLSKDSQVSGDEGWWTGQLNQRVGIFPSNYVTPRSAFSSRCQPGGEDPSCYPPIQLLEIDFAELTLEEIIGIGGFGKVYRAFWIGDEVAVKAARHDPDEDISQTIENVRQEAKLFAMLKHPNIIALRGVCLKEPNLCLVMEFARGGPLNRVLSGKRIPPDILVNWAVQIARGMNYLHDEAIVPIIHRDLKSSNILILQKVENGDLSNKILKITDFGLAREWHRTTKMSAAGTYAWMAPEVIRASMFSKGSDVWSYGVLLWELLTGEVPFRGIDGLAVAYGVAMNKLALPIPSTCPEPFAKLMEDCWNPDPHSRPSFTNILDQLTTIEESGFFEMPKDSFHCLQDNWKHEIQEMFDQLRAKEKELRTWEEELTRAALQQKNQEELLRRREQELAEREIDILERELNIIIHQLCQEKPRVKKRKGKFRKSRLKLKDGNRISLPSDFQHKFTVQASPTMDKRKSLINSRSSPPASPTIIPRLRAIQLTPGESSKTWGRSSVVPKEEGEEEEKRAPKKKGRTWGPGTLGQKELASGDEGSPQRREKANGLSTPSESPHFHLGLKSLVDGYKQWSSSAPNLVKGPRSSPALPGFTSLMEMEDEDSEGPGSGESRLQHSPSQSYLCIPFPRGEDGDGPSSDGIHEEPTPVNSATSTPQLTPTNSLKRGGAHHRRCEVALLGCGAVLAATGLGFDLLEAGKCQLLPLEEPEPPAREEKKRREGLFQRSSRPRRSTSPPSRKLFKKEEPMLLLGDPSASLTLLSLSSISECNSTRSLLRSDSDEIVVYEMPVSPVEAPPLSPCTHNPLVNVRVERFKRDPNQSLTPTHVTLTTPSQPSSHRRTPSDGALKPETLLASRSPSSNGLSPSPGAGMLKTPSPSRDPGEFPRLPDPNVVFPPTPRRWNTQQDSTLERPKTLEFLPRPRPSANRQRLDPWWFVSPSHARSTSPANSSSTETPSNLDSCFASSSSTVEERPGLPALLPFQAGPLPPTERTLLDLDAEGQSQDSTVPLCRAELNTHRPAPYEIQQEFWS
Sequence of Src (P12931 whole entry): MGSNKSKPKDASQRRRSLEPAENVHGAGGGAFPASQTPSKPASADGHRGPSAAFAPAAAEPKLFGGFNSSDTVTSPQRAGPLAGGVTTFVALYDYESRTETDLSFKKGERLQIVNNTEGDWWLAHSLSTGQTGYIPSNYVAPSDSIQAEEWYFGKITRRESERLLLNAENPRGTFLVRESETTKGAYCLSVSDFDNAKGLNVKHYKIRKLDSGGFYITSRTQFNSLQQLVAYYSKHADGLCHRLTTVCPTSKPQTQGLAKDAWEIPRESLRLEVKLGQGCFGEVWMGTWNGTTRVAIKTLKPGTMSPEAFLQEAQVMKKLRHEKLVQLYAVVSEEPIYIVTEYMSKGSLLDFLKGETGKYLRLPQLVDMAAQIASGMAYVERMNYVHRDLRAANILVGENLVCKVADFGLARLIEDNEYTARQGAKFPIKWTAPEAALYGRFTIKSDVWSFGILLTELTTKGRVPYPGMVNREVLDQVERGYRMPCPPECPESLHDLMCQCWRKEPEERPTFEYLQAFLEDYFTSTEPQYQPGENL
Sequence of HIPK1 (Q86Z02 whole entry): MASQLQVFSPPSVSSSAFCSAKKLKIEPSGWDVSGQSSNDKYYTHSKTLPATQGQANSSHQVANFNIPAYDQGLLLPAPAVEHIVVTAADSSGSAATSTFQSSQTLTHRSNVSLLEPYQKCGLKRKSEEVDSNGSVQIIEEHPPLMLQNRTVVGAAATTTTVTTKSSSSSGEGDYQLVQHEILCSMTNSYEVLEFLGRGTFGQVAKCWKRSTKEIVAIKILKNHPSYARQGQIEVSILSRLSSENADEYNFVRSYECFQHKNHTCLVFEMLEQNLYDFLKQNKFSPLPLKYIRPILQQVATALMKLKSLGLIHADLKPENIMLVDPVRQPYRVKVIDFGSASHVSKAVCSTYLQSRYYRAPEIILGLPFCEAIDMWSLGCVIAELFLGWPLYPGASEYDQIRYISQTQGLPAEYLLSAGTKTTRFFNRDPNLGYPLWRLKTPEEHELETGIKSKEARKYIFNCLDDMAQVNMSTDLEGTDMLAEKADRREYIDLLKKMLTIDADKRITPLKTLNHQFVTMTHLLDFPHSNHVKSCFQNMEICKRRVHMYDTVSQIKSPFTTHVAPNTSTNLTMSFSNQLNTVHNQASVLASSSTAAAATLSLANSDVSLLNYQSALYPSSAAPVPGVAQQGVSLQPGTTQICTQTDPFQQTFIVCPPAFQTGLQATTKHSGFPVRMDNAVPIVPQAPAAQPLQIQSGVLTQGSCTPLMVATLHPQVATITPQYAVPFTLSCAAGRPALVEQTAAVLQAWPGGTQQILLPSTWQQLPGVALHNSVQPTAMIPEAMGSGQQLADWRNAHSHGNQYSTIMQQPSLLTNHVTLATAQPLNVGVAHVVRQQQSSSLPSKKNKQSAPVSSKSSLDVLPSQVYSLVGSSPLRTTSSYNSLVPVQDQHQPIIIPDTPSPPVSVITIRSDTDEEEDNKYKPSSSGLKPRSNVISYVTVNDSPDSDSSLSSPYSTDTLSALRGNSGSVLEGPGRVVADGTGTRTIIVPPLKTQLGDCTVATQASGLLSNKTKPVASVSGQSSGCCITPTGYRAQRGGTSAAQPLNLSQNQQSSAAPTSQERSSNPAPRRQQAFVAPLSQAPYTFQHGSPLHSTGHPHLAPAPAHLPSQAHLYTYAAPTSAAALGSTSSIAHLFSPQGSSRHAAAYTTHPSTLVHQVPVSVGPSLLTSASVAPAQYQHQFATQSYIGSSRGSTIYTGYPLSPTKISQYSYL

CN(C)c1cc[n+](CCCCCCCCCCCC[n+]2ccc(N(C)C)cc2)cc1 [ICL-CCIC-0019]
change of intracellular PCho pool ([1]; 1 μM): −56% | change of intracellular PCho pool ([1]; 10 μM): −61% | decrease in S-adenosylhomocysteine (SAH) ([1]; HCT116 cells): 26% | increase in SAM ([1]; HCT116 cells): 11% | GI50 ([2]; read-out: GI50 range across all cell lines): 38.9 to 16200 nM | GI50 ([2]; read-out: median GI50 across all cell lines): 1120 nM | remaining activity at 10 µM [3]: 94% | remaining activity at 10 µM [4]: 97% | remaining activity at 10 µM [5]: 92% | remaining activity at 10 µM [6]: 93% | remaining activity at 10 µM [7]: 103% | remaining activity at 10 µM [8]: 99% | remaining activity at 10 µM [9]: 93% | remaining activity at 10 µM [10]: 101% | remaining activity at 10 µM [11]: 106% | remaining activity at 10 µM [12]: 133% | remaining activity at 10 µM [13]: 100% | remaining activity at 10 µM [14]: 106% | remaining activity at 10 µM [15]: 92% | remaining activity at 10 µM [16]: 105% | remaining activity at 10 µM [17]: 94% | remaining activity at 10 µM [18]: 96% | remaining activity at 10 µM [19]: 107% | remaining activity at 10 µM [20]: 91% | remaining activity at 10 µM [21]: 100% | remaining activity at 10 µM [22]: 89% | remaining activity at 10 µM [23]: 100% | remaining activity at 10 µM [24]: 102% | inhibition at 10 µM [25]: 31 ± 4% | remaining activity at 10 µM [25]: 69% | remaining activity at 10 µM [26]: 91%
